Source: patent US10077243B2, “Compounds for treating disorders mediated by metabotropic glutamate receptor 5, and methods of use thereof” (Sunovion Pharmaceuticals Inc., priority 2009, dated 2018)

Biological target: T1, human mGluR5 (Homo sapiens, UniProt P41594)
T1 construct: expressed in transfected cells; host or cells: HEK293 cells stably expressing rat GLAST (EAAT1), stably transfected with pcDNAzeo3.1 carrying synthetic human mGluR5 DNA; zeocin-selected single clones
Assay: In vitro cell-based FLIPR calcium assay for positive modulation of the activation of mGluR5 by glutamate (PAM EC50)
Settings: HEK293/GLAST cells expressing recombinant human mGluR5; FLIPR calcium signal; glutamate added at its EC20; read-out: mGluR5 PAM EC50
Procedure, shortened: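 HEK293/GLAST cells stably expressing mGluR5 were loaded with calcium-sensitive dye (25 °C, 45–60 min) in HBSS/20 mM HEPES. Test compounds were assayed in buffer containing glutamate at that day's EC20, with FLIPR fluorescence recorded. Controls contained 0.3% DMSO without compound.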

T1 sequence (P41594 21-1212): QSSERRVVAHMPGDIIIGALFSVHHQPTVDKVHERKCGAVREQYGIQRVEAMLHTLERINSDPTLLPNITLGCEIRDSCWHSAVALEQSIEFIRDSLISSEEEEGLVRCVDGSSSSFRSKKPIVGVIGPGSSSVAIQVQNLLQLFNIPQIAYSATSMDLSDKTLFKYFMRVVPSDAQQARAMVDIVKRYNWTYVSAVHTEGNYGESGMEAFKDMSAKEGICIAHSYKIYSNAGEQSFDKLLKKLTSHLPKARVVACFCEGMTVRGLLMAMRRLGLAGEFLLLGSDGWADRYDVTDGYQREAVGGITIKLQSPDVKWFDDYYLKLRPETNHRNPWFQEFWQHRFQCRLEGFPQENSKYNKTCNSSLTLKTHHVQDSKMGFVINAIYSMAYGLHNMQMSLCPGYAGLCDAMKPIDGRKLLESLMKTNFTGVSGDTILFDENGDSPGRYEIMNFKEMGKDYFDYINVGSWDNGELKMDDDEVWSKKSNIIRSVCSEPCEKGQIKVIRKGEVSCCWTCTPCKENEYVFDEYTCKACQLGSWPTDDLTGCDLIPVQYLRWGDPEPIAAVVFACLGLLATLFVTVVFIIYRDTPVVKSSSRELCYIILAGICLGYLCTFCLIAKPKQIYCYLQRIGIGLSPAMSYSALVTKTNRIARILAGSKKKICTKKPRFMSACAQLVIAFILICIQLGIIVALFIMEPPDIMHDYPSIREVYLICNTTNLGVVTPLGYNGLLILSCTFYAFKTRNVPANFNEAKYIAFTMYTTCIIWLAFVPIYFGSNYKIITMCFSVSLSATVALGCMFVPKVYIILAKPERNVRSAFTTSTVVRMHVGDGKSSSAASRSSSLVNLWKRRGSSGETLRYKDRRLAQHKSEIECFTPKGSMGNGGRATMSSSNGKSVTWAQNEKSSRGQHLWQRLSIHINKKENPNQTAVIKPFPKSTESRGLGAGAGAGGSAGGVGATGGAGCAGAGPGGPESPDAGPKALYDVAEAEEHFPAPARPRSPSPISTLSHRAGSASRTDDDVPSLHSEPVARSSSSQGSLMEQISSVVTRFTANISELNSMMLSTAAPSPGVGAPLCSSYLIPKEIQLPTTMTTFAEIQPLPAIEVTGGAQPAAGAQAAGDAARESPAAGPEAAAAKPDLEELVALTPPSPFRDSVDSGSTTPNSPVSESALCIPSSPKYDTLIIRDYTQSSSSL

SMILES	EC50 [nM]
O=c1c2ccc(C#Cc3ccccn3)cc2nc2n1CC1(CCOCC1)C2 [Example 3.24, 6′-(pyridin-2-ylethynyl)-2,3,5,6-tetrahydro-1′H-spiro[pyran-4,2′-pyrrolo[2,1-b]quinazolin]-9′(3′H)-one]	10 to 30
O=c1c2c(nc3cc(C#Cc4cccnc4)ccn13)CCCCCC2 [Example 17.3, 3-(pyridin-3-ylethynyl)-8,9,10,11-tetrahydro-6H-cycloocta[d]pyrido[1,2-a]pyrimidin-12(7H)-one]	< 10
COCC1CCc2nc3cc(C#Cc4ccccn4)ccc3c(=O)n2C1 (single isomer, unassigned) [4.34a/4.34b faster moving enantiomer (fraction 1), 8-(methoxymethyl)-3-(pyridin-2-ylethynyl)-8,9-dihydro-6H-pyrido[2,1-b]quinazolin-11(7H)-one]	30 to 100
CC1(C)CCCc2nc3cc(C#Cc4ccccn4)ccc3c(=O)n2C1 [Example 6.43, 9,9-dimethyl-3-(pyridin-2-ylethynyl)-7,8,9,10-tetrahydroazepino[2,1-b]quinazolin-12(6H)-one]	10 to 30
COC1(C)CCc2nc3cc(C#Cc4ccccn4)ccc3c(=O)n2C1 (stereo not drawn) [Example 4.46, 8-methoxy-8-methyl-3-(pyridin-2-ylethynyl)-8,9-dihydro-6H-pyrido[2,1-b]quinazolin-11(7H)-one]	10 to 30
CN1CCc2nc3cc(C#Cc4cccc(F)c4)ccc3c(=O)n2CC1 [Example 8.7, 8-((3-fluorophenyl)ethynyl)-3-methyl-2,3,4,5-tetrahydro-[1,4]diazepino[7,1-b]quinazolin-11(1H)-one]	30 to 100
CC1CCCCn2c1nc1cc(C#Cc3ccccn3)ccc1c2=O (stereo not drawn) [Example 6.35, 6-methyl-3-(pyridin-2-ylethynyl)-7,8,9,10-tetrahydroazepino[2,1-b]quinazolin-12(6H)-one]	10 to 30
O=c1c2ccc(C#Cc3cccc(F)c3)cc2nc2n1CCC(O)CC2 (stereo not drawn) [Example 6.15, 3-((3-fluorophenyl)ethynyl)-8-hydroxy-7,8,9,10-tetrahydroazepino[2,1-b]quinazolin-12(6H)-one]	< 10
O=c1c2ccc(C#Cc3ccc(F)cc3)cc2ncn1CC1CC1 [Example 1.9, 3-(cyclopropylmethyl)-7-((4-fluorophenyl)ethynyl)quinazolin-4(3H)-one]	100 to 300
COC1(C)CCc2nc3cc(C#Cc4ccccn4)ccc3c(=O)n2CC1 (stereo not drawn) [Example 6.50, 8-methoxy-8-methyl-3-(pyridin-2-ylethynyl)-7,8,9,10-tetrahydroazepino[2,1-b]quinazolin-12(6H)-one]	30 to 100
CC1Cc2nc3cc(/C=C/c4cccc(F)c4)ccc3c(=O)n2C1 (stereo not drawn) [Example 20.14, 6-(3-fluorostyryl)-2,3-dihydro-2-methylpyrrolo[2,1-b]quinazolin-9(1H)-one]	100 to 300
CC(C)N1CCc2nc3cc(C#Cc4ccc(F)cc4)ccc3c(=O)n2CC1 [Example 8.3, 8-((4-fluorophenyl)ethynyl)-3-isopropyl-2,3,4,5-tetrahydro-[1,4]diazepino[7,1-b]quinazolin-11(1H)-one]	100 to 300
CC(O)c1cnc2cc(C#Cc3cccc(F)c3)ccn2c1=O (stereo not drawn) [Example 13.1, 8-((3-fluorophenyl)ethynyl)-3-(1-hydroxyethyl)-4H-pyrido[1,2-a]pyrimidin-4-one]	100 to 300
O=c1c2ccc(C#Cc3ccccn3)cc2nc2n1C1CCC2CC1 [Example 4.48, 3-(pyridin-2-ylethynyl)-8,9-dihydro-6H-6,9-ethanopyrido[2,1-b]quinazolin-11(7H)-one]	< 10
O=c1c2c(nc3cc(C#Cc4ccccn4)ccn13)C[C@@H]1CCCN1C2 [Example 15.7, (S)-10-(pyridin-2-ylethynyl)-2,3,13,13a-tetrahydro-1H-pyrido[1′,2′:1,2]pyrimido[5,4-f]indolizin-6(5H)-one]	300 to 1000
CC1CCc2nc3cc(C#Cc4ccccn4)cnc3c(=O)n2CC1 (single isomer, unassigned) [11.9a/11.9b faster moving enantiomer (fraction 1), 8-methyl-3-(pyridin-2-ylethynyl)-7,8,9,10-tetrahydropyrido[3′,2′: 4,5]pyrimido[1,2-a]azepin-12(6H)-one]	30 to 100
CC1(F)CCc2nc3cc(C#Cc4ccccn4)ccc3c(=O)n2CC1 (stereo not drawn) [Example 6.48, 8-fluoro-8-methyl-3-(pyridin-2-ylethynyl)-7,8,9,10-tetrahydroazepino[2,1-b]quinazolin-12(6H)-one]	< 10
COCC1Cc2nc3cc(C#Cc4ccccn4)ccc3c(=O)n2C1 (stereo not drawn) [Example 3.19, 2-(methoxymethyl)-6-(pyridin-2-ylethynyl)-2,3-dihydropyrrolo[2,1-b]quinazolin-9(1H)-one]	30 to 100
Cc1csc(C#Cc2ccc3c(=O)n4c(nc3c2)CCC2(CC4)OCCO2)n1 [Example 7.61]	30 to 100
CC1Cn2c(nc3cc(C#Cc4ccccn4)ccc3c2=O)CN1C (stereo not drawn) [Example 5.14, 2,3-dimethyl-9-(pyridin-2-ylethynyl)-3,4-dihydro-1H-pyrazino[2,1-b]quinazolin-6(2H)-one]	30 to 100

SMILES	EC50 [nM]
O=c1c(CO)cnc2cc(C#Cc3cccc(F)c3)ccn12 [Example 13.6, 8-((3-fluorophenyl)ethynyl)-3-(hydroxymethyl)-4H-pyrido[1,2-a]pyrimidin-4-one]	300 to 1000
O=c1c2ccc(C#Cc3cccc(F)c3)cc2nc2n1CC(CO)CC2 (stereo not drawn) [Example 4.31, 3-((3-fluorophenyl)ethynyl)-8-(hydroxymethyl)-8,9-dihydro-6H-pyrido[2,1-b]quinazolin-11(7H)-one]	< 10
CCCCN1CCn2c(nc3cc(C#Cc4cccc(F)c4)ccc3c2=O)C1 [Example 5.11, 2-butyl-9-((3-fluorophenyl)ethynyl)-3,4-dihydro-1H-pyrazino[2,1-b]quinazolin-6(2H)-one]	100 to 300
CCC1CCc2nc3cc(C#Cc4ccc(F)cc4)ccc3c(=O)n2CC1 (stereo not drawn) [Example 6.12, 8-ethyl-3-((4-fluorophenyl)ethynyl)-7,8,9,10-tetrahydroazepino[2,1-b]quinazolin-12(6H)-one]	< 10
CC1(F)CCc2nc3cc(C#Cc4ccccn4)ccc3c(=O)n2CC1 (single isomer, unassigned) [Example 6.48a/6.48b slower moving enantiomer (fraction 2), 8-fluoro-8-methyl-3-(pyridin-2-ylethynyl)-7,8,9,10-tetrahydroazepino[2,1-b]quinazolin-12(6H)-one]	< 10
Cn1c(CN2CCCC2)nc2cc(C#Cc3cccc(F)c3)ccc2c1=O [Example 2.6, 7-((3-fluorophenyl)ethynyl)-3-methyl-2-(pyrrolidin-1-ylmethyl)quinazolin-4(3H)-one]	100 to 300
O=c1c2c(nc3cc(C#Cc4ccncc4)ccn13)CCCCC2 [Example 16.5, 3-(pyridin-4-ylethynyl)-7,8,9,10-tetrahydrocyclohepta[d]pyrido[1,2-a]pyrimidin-11(6H)-one]	< 10
Cc1ccc(C#Cc2ccc3c(=O)n4c(nc3c2)CCC2(CC4)OCCO2)cc1 [Example 7.32]	300 to 1000
CC1(C)Cn2c(nc3cc(C#Cc4ccccn4)ccc3c2=O)CN1 [Example 5.17, 3,3-dimethyl-9-(pyridin-2-ylethynyl)-3,4-dihydro-1H-pyrazino[2,1-b]quinazolin-6(2H)-one]	100 to 300
CC1Cn2c(nc3cc(C#Cc4ccccn4)ccc3c2=O)CCN1C (stereo not drawn) [Example 8.30, 2,3-dimethyl-8-(pyridin-2-ylethynyl)-2,3,4,5-tetrahydro-[1,4]diazepino[7,1-b]quinazolin-11(1H)-one]	100 to 300
CN1CCOCC1c1nc2cc(C#Cc3cccc(F)c3)ccc2c(=O)n1C (stereo not drawn) [Example 2.9, 7-((3-fluorophenyl)ethynyl)-3-methyl-2-(4-methylmorpholin-3-yl)quinazolin-4(3H)-one]	< 10
COCCN1CCc2nc3cc(C#Cc4cccc(F)c4)ccc3c(=O)n2CC1 [Example 8.10, 8-((3-fluorophenyl)ethynyl)-3-(2-methoxyethyl)-2,3,4,5-tetrahydro-[1,4]diazepino[7,1-b]quinazolin-11(1H)-one]	100 to 300
O=c1c2ccc(C#Cc3ccccn3)cc2nc2n1CCC(O)CC2 (stereo not drawn) [Example 6.16, 8-hydroxy-3-(pyridin-2-ylethynyl)-7,8,9,10-tetrahydroazepino[2,1-b]quinazolin-12(6H)-one]	30 to 100
O=c1c2ccc(C#Cc3ccccn3)cc2nc2n1CC1CCCCN1C2 (stereo not drawn) [Example 5.20, 3-(pyridin-2-ylethynyl)-8,9,10,11,11a,12-hexahydropyrido[1′,2′:4,5]pyrazino[2,1-b]quinazolin-14(6H)-one]	300 to 1000
CC1CCCn2c(nc3cc(C#Cc4ccccn4)ccc3c2=O)C1 (stereo not drawn) [Example 6.36, 7-methyl-3-(pyridin-2-ylethynyl)-7,8,9,10-tetrahydroazepino[2,1-b]quinazolin-12(6H)-one]	10 to 30
Cn1c(C2CCCO2)nc2cc(C#Cc3cccc(F)c3)ccc2c1=O (stereo not drawn) [Example 2.3, 7-((3-fluorophenyl)ethynyl)-3-methyl-2-(tetrahydrofuran-2-yl)quinazolin-4(3H)-one]	300 to 1000
O=c1c2ccc(C#CC3=CCCCC3)cc2nc2n1CCC1(CC2)OCCO1 [Example 7.53]	300 to 1000
COCC1CCc2nc3cc(C#Cc4ccccn4)ccc3c(=O)n2C1 (stereo not drawn) [Example 4.34, 8-(methoxymethyl)-3-(pyridin-2-ylethynyl)-8,9-dihydro-6H-pyrido[2,1-b]quinazolin-11(7H)-one]	10 to 30
O=c1c2ccc(C#Cc3cccc(F)c3)cc2nc2n1CCN(CCO)C2 [Example 5.8, 9-((3-fluorophenyl)ethynyl)-2-(2-hydroxyethyl)-3,4-dihydro-1H-pyrazino[2,1-b]quinazolin-6(2H)-one]	30 to 100
